System: 997537-175-T-J1-PDC complex spheroid viability
Assay: Anticancer human tumor 997537-175-T-J1-PDC patient-derived colon adenocarcinoma cell line growth inhibition [GQUAD]
Conditions: for IC50: curve of first compound; for viability, T/C: stronger effect = lower value; active = viability on the fitted dose curve at most 10% of control; inactive = the rest
How it was run: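 Viability of tumor cells grown as complex spheroids with endothelial and stromal cells, exposed to drug combinations. Top concentration at or near clinical Cmax (else 10 microM), diluted in half-log increments.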

[1] = second compound 0.0316 µM, first compound 0.0316 µM
[2] = second compound 0.0316 µM, first compound 0.316 µM
[3] = second compound 0.1 µM, first compound 0.0316 µM
[4] = second compound 0.1 µM, first compound 0.316 µM
[5] = second compound 0.316 µM, first compound 0.0316 µM
[6] = second compound 0.316 µM, first compound 0.316 µM
[7] = second compound 1 µM, first compound 0.0316 µM
[8] = second compound 1 µM, first compound 0.316 µM
[9] = second compound 3.16 µM, first compound 0.0316 µM
[10] = second compound 3.16 µM, first compound 0.316 µM
[11] = second compound 10 µM, first compound 0.0316 µM
[12] = second compound 10 µM, first compound 0.316 µM
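Also: spheroids exposed to the agents for 7 days.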
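For viability, T/C in this document: 100% = DMSO vehicle control viability.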

O=C(c1cc(Cc2n[nH]c(=O)c3ccccc23)ccc1F)N1CCN(C(=O)C2CC2)CC1 + CN(C)c1ccc(Nc2c3ccc(NC(=O)CCN4CCCC4)cc3nc3cc(NC(=O)CCN4CCCC4)ccc23)cc1
inactive: viability, T/C [1] 106% | viability, T/C (second compound 0.0316 µM, first compound 0.1 µM) 89.7% | viability, T/C [2] 91.4% | viability, T/C (second compound 0.0316 µM, first compound 1 µM) 79.1% | viability, T/C (second compound 0.0316 µM, first compound 3.16 µM) 98.9% | viability, T/C (second compound 0.0316 µM, first compound 10 µM) 90.6% | viability, T/C [3] 92% | viability, T/C (second compound 0.1 µM, first compound 0.1 µM) 99.2% | viability, T/C [4] 97.2% | viability, T/C (second compound 0.1 µM, first compound 1 µM) 74.5% | viability, T/C (second compound 0.1 µM, first compound 3.16 µM) 91.4% | viability, T/C (second compound 0.1 µM, first compound 10 µM) 88.9% | viability, T/C [5] 88.3% | viability, T/C (second compound 0.316 µM, first compound 0.1 µM) 78.2% | viability, T/C [6] 90.4% | viability, T/C (second compound 0.316 µM, first compound 1 µM) 72% | viability, T/C (second compound 0.316 µM, first compound 3.16 µM) 97.3% | viability, T/C (second compound 0.316 µM, first compound 10 µM) 84.3% | viability, T/C [7] 85.7% | viability, T/C (second compound 1 µM, first compound 0.1 µM) 86% | viability, T/C [8] 77.6% | viability, T/C (second compound 1 µM, first compound 1 µM) 85.6% | viability, T/C (second compound 1 µM, first compound 3.16 µM) 92.4% | viability, T/C (second compound 1 µM, first compound 10 µM) 85.4% | viability, T/C [9] 82.8% | viability, T/C (second compound 3.16 µM, first compound 0.1 µM) 105% | viability, T/C [10] 88.7% | viability, T/C (second compound 3.16 µM, first compound 1 µM) 73.9% | viability, T/C (second compound 3.16 µM, first compound 3.16 µM) 85.8% | viability, T/C (second compound 3.16 µM, first compound 10 µM) 105% | viability, T/C [11] 74.9% | viability, T/C (second compound 10 µM, first compound 0.1 µM) 97.4% | viability, T/C [12] 95.2% | viability, T/C (second compound 10 µM, first compound 1 µM) 93.8% | viability, T/C (second compound 10 µM, first compound 3.16 µM) 102% | viability, T/C (second compound 10 µM, first compound 10 µM) 96%
> 10 µM: IC50 (second compound 0.0316 µM) | IC50 (second compound 0.1 µM) | IC50 (second compound 0.316 µM) | IC50 (second compound 1 µM) | IC50 (second compound 3.16 µM) | IC50 (second compound 10 µM)

CC[C@@]1(O)C(=O)OCc2c1cc1n(c2=O)Cc2cc3c(CN(C)C)c(O)ccc3nc2-1 + Cc1[nH]c2ccc(F)cc2c1-c1nc2c3cccnc3c3ncccc3c2[nH]1
> 0.316 µM: IC50 (second compound 0.0316 µM) | IC50 (second compound 0.1 µM) | IC50 (second compound 0.316 µM) | IC50 (second compound 1 µM) | IC50 (second compound 3.16 µM) | IC50 (second compound 10 µM)
inactive: viability, T/C (second compound 0.0316 µM, first compound 0.000999 µM) 97.8% | viability, T/C (second compound 0.0316 µM, first compound 0.00316 µM) 91.4% | viability, T/C (second compound 0.0316 µM, first compound 0.00999 µM) 99.2% | viability, T/C [1] 86.7% | viability, T/C (second compound 0.0316 µM, first compound 0.0999 µM) 90.6% | viability, T/C [2] 55.9% | viability, T/C (second compound 0.1 µM, first compound 0.000999 µM) 92% | viability, T/C (second compound 0.1 µM, first compound 0.00316 µM) 89.1% | viability, T/C (second compound 0.1 µM, first compound 0.00999 µM) 75.6% | viability, T/C [3] 82.8% | viability, T/C (second compound 0.1 µM, first compound 0.0999 µM) 61.2% | viability, T/C [4] 54.7% | viability, T/C (second compound 0.316 µM, first compound 0.000999 µM) 85.9% | viability, T/C (second compound 0.316 µM, first compound 0.00316 µM) 72.1% | viability, T/C (second compound 0.316 µM, first compound 0.00999 µM) 81.3% | viability, T/C [5] 97% | viability, T/C (second compound 0.316 µM, first compound 0.0999 µM) 85.5% | viability, T/C [6] 55.1% | viability, T/C (second compound 1 µM, first compound 0.000999 µM) 80.8% | viability, T/C (second compound 1 µM, first compound 0.00316 µM) 59.6% | viability, T/C (second compound 1 µM, first compound 0.00999 µM) 85.8% | viability, T/C [7] 93% | viability, T/C (second compound 1 µM, first compound 0.0999 µM) 80.2% | viability, T/C [8] 62.6% | viability, T/C (second compound 3.16 µM, first compound 0.000999 µM) 51.4% | viability, T/C (second compound 3.16 µM, first compound 0.00316 µM) 82.8% | viability, T/C (second compound 3.16 µM, first compound 0.00999 µM) 61% | viability, T/C [9] 51.2% | viability, T/C (second compound 3.16 µM, first compound 0.0999 µM) 90.5% | viability, T/C [10] 70.8% | viability, T/C (second compound 10 µM, first compound 0.000999 µM) 71.8% | viability, T/C (second compound 10 µM, first compound 0.00316 µM) 82.4% | viability, T/C (second compound 10 µM, first compound 0.00999 µM) 77.3% | viability, T/C [11] 62.2% | viability, T/C (second compound 10 µM, first compound 0.0999 µM) 62.9% | viability, T/C [12] 58.9%

— PubChem BioAssay AID2060487 (Molecular Pharmacology Branch, DTP, NCI, 2025)
